{"source": "paper PMC4147587", "about": "“Synthesis and Analgesic Effects of μ-TRTX-Hhn1b on Models of Inflammatory and Neuropathic Pain” (Toxins, 2014)", "test_system": "motor coordination of rats (latency to fall off the rotarod)", "assay_type": "in vivo, rat (Sprague-Dawley)", "details": "vs baseline, n = 6", "procedure": "Motor activity was assessed using a rotarod apparatus for rats (Coulbourn Instruments, Lehigh Valley, PA, USA). The rotarod might be set at any speed from 0 to 50 rpm. For motor coordination assessment, rats were trained for 2 days by walking them each day on an accelerating rotarod from 4 to 40 rpm for 10 min. […] Motor performance was considered as the latency to fall off the rotarod apparatus determined from the mean time in three trials for each rat at each time.", "note": "Where two headings read alike, the source gives them in different places.", "data": [{"compound": "CC[C@H](C)[C@H](NC(=O)[C@H](CCC(=O)O)NC(=O)[C@H](Cc1ccc(O)cc1)NC(=O)[C@H](CCCCN)NC(=O)[C@@H]1CSSC[C@@H]2NC(=O)[C@H](CCC(N)=O)NC(=O)[C@H](CC(=O)O)NC(=O)[C@H](CC(N)=O)NC(=O)[C@H](CO)NC(=O)[C@@H]3CCCN3C(=O)[C@H](CC(N)=O)NC(=O)[C@@H]3CSSC[C@H](NC(=O)[C@H](C(C)C)NC(=O)[C@H](CC(C)C)NC(=O)[C@H](CC(N)=O)NC(=O)[C@H](CO)NC(=O)[C@H](CO)NC(=O)[C@H](CCCCN)NC(=O)[C@H](CSSC[C@H](NC(=O)[C@@H](N)CCC(=O)O)C(=O)N[C@@H](CC(C)C)C(=O)NCC(=O)N[C@@H](Cc4ccccc4)C(=O)NCC(=O)N[C@@H](CCCCN)C(=O)NCC(=O)N3)NC2=O)C(=O)N[C@@H](CO)C(=O)N[C@@H](CCCNC(=N)N)C(=O)N[C@@H](CCCCN)C(=O)N[C@@H](Cc2c[nH]cn2)C(=O)N[C@@H](CCCNC(=N)N)C(=O)N[C@@H](Cc2c[nH]c3ccccc23)C(=O)N1)C(N)=O", "note": "[μ-TRTX-Hhn1b]", "values": [{"measurement": "latency to fall off the rotarod", "setting": "0.1 mg/kg, 30 min and 90 min after administration", "value": "no significant change in latencies to fall off the rotarod"}, {"measurement": "latency to fall off the rotarod", "setting": "0.2 mg/kg, 30 min after administration, p < 0.05", "value": "significantly (p < 0.05) reduced latencies"}, {"measurement": "latency to fall off the rotarod", "setting": "0.2 mg/kg, 90 min after administration", "value": "not at 90 min"}]}]}
